Source: US20090148540A1, “Antibacterial composition and method of production” (MI HOPE INCORPORATED, priority 2007, published 2009)

System: MRSA
Assay: Anti-MRSA activity on dried surface areas swabbed with MRSA broth, surveyed with MRSA selective agar plates
Type: cell-based, Staphylococcus aureus
Conditions: surface areas previously swabbed with MRSA broth; treated areas dried 30 minutes; MEC DD Checker Plates; copper citrate solution (22 volts, 2.8 amps, 2 hours) diluted 1 to 10 in water
Method: In one protocol, the diluted copper citrate solution was applied to several dried surface areas that had been previously swabbed with an MRSA containing broth solution. The treated areas were allowed to dry over the next 30 minutes. An MRSA selective agar medium was then used to survey the areas for residual MRSA (MEC DD Checker Plates obtained from Denka Seiken, Inc., Japan). For control, similarly contaminated areas were either left untreated or exposed to the original starting 5% citric acid solution.

Structure (SMILES): O=C(O)CC(O)(CC(=O)O)C(=O)O [5% citric acid solution, citric acid]
- residual MRSA growth on MRSA selective agar medium from treated surface areas: numerous MRSA colonies developed
